Assay [1] addresses T1, Peroxisome proliferator-activated receptor alpha (Homo sapiens) (UniProt Q07869).
T1 sequence (whole entry): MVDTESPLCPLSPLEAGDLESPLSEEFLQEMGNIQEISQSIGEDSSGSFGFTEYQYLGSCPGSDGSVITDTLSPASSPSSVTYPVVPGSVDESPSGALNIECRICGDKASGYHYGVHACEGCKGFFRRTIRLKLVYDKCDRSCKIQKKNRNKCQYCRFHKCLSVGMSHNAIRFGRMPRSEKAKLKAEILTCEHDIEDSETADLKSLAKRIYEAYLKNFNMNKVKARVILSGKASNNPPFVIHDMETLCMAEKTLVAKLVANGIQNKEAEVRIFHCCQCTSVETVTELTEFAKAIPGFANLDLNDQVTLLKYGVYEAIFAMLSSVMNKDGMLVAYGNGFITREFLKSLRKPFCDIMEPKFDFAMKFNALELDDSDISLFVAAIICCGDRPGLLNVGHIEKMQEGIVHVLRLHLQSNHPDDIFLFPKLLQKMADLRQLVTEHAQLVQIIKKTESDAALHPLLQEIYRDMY
The assay is described as follows: Agonist activity at human PPARalpha in U2OS cells by transactivation assay relative to WY-14643. It is filed as functional, cell-based.

Assay [2] concerns the target T2, Peroxisome proliferator-activated receptor gamma (Homo sapiens, UniProt P37231).
T2 sequence (P37231 whole entry): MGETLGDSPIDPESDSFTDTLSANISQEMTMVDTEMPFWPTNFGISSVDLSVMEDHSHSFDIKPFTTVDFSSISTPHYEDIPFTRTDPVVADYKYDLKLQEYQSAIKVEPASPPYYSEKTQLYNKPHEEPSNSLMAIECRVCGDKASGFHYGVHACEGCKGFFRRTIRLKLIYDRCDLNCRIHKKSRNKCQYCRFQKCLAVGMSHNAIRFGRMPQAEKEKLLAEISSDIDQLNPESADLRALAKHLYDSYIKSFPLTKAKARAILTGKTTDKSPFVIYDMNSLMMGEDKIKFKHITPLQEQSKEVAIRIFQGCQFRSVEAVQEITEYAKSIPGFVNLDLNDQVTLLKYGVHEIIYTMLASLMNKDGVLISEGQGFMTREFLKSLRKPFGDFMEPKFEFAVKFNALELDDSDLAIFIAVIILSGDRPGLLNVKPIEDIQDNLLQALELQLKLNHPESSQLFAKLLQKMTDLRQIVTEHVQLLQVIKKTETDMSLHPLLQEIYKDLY
Description: Agonist activity at human PPARgamma in U2OS cells by transactivation assay

Assay [3] concerns the target T3, Peroxisome proliferator-activated receptor alpha (Homo sapiens, UniProt Q07869).
T3 sequence (Q07869 whole entry): T1 sequence (whole entry)
The assay is described as follows: Agonist activity at human PPARalpha in U2OS cells by transactivation assay.

Active and inactive are the calls of the source. The calls are words filed in the database; no cut-off is given here.

The results in this text go back to ChEMBL document CHEMBL1154459, “Synthesis and evaluation of a series of benzopyran derivatives as PPAR alpha/gamma agonists” (Eur J Med Chem, 2008).

By EC50 is commonly meant the midpoint of the concentration-response curve. In assay [1], `COC(=O)C1Cc2ccc(OCCc3nc(-c4cccc(OC)c4)oc3C)cc2OC1=O` (stereo unspecified) displayed a %max of 23%. Further, the values for the EC50 in assay [2] and in assay [3] were 100 nM and 1200 nM, respectively.

As to `COC(=O)c1cc2ccc(OCCc3nc(-c4cccc(C)c4)oc3C)cc2oc1=O`, in assay [1], the “%max” value is “inactive”. In addition, the figures for the EC50 in assay [2] and in assay [3] (u2os) were 1 nM and “Not Active”, respectively.

On to `COC(=O)C1Cc2ccc(OCCc3nc(-c4ccc(C(C)(C)C)cc4)oc3C)cc2OC1=O` (stereo unspecified), for which the %max in assay [1] stood at 26%. For the same compound, the figures for the EC50 in assay [2] and in assay [3] were 250 nM and 100 nM, respectively.

With `Cc1cccc(Nc2cc(Cl)nc(SCC(=O)O)n2)c1C`, the %max in assay [1] was determined as 100%.

Consider `COC(=O)C1Cc2ccc(OCCc3nc(-c4cccc(F)c4)oc3C)cc2OC1=O` (stereo unspecified), for which, in assay [1], the %max is 30%. The EC50 in assay [2] amounted to 170 nM; in assay [3], 720 nM.

`COC(=O)c1cc2ccc(OCCc3nc(-c4ccc(F)cc4)oc3C)cc2oc1=O`: the %max in assay [1] is 44%. The EC50 in assay [2] amounted to 1620 nM; in assay [3], 70 nM.

In assay [1], `COC(=O)C1Cc2ccc(OCCc3nc(-c4cccc(C)c4)oc3C)cc2OC1=O` (stereo unspecified) registered a %max of 83%. Also, the EC50 stood at 1 nM in assay [2] and 1550 nM in assay [3].

`COC(=O)c1cc2ccc(OCCc3nc(-c4ccc(-c5ccccc5)cc4)oc3C)cc2oc1=O`: the %max in assay [1] was 116%. For the same compound, the EC50 in assay [2] is 1260 nM; in assay [3] it was 1230 nM.

Compound `COC(=O)c1cc2ccc(OCCc3nc(-c4ccc(C)cc4)oc3C)cc2oc1=O` returned a %max in assay [1] of 65%. In addition, the EC50 in assay [2] and in assay [3] was 1 nM throughout.

`COC(=O)C1Cc2ccc(OCCc3nc(-c4ccc(F)cc4)oc3C)cc2OC1=O` (stereo unspecified) returned a %max in assay [1] of 98%. Besides, the EC50 in assay [2] was 1 nM; in assay [3], 100 nM.

For the compound `COC(=O)C1Cc2ccc(OCCc3nc(-c4ccc(OC)cc4)oc3C)cc2OC1=O` (stereo unspecified), in assay [1], the %max was 96%. The EC50 in assay [2] amounted to 1 nM; in assay [3], 1740 nM.

In the case of `COC(=O)c1cc2ccc(OCCc3nc(-c4cccc([N+](=O)[O-])c4)oc3C)cc2oc1=O`, in assay [1], the “%max” value was “inactive”. Further, the values for the concentration giving a half-maximal response (EC50) in assay [2] and in assay [3] (u2os) were 3550 nM and “Not Active”, respectively.

Take `COC(=O)c1cc2ccc(OCCc3nc(-c4cccc(C(F)(F)F)c4)oc3C)cc2oc1=O`: the %max in assay [1] was 21%. Besides, the EC50 in assay [2] was 420 nM; in assay [3], 1200 nM.

Compound `COC(=O)C1Cc2ccc(OCCc3nc(-c4ccc(C)cc4)oc3C)cc2OC1=O` (stereo unspecified) yielded a %max in assay [1] of 94%. Moreover, the EC50 is 1 nM in assay [2] and 910 nM in assay [3].

In turn, `COC(=O)c1cc2ccc(OCCc3nc(-c4cccc(F)c4)oc3C)cc2oc1=O` registered a %max in assay [1] of 38%. For the same compound, the concentration giving a half-maximal response (EC50) in assay [2] was 960 nM; in assay [3], 1290 nM.

With `COC(=O)c1cc2ccc(OCCc3nc(-c4ccc(OC)cc4)oc3C)cc2oc1=O`, the %max in assay [1] was 163%. The EC50 in assay [2] was 1 nM; in assay [3] it was 5250 nM.

For the compound `COC(=O)C1Cc2ccc(OCCc3nc(-c4ccc(-c5ccccc5)cc4)oc3C)cc2OC1=O` (stereo unspecified), the %max in assay [1] amounted to 68%. Further, the values for the EC50 in assay [2] and in assay [3] were 1120 nM and 910 nM, respectively.

As for `COC(=O)C1Cc2ccc(OCCc3nc(-c4ccccc4)oc3C)cc2OC1=O` (stereo unspecified), the %max in assay [1] turned out to be 42%. The EC50 was 130 nM in assay [2] and 140 nM in assay [3].

`COC(=O)C1Cc2ccc(OCCc3nc(-c4cccc(C(F)(F)F)c4)oc3C)cc2OC1=O` (stereo unspecified) yielded a %max in assay [1] of 23%. Moreover, the EC50 was 160 nM in assay [2] and 170 nM in assay [3].

Regarding `COC(=O)c1cc2ccc(OCCc3nc(-c4ccc(C(C)(C)C)cc4)oc3C)cc2oc1=O`, in assay [1], the %max was 90%. Moreover, the EC50 in assay [2] stood at 1740 nM; in assay [3] it was 2290 nM.

`COC(=O)c1cc2ccc(OCCc3nc(-c4cccc(OC)c4)oc3C)cc2oc1=O`: the %max in assay [1] is 100%. For the same compound, the EC50 in assay [2] was 350 nM; in assay [3], 1620 nM.
